What was measured:
Type in all cases: in vivo
Plasmopara viticola = test: Long-term activity against Plasmopara viticola on grapevines; settings: 16 ppm, grapevines cv. Müller-Thurgau, inoculated 7 days after spraying; untreated control 75%
Source text: 2) Long-term Activity Against Plasmopara viticola Leaves of potted grapevines cv. “Müller-Thurgau” were sprayed to runoff point with an aqueous active compound preparation which had been prepared from a stock solution comprising 10% of active compound, 63% of cyclohexanone and 27% of emulsifier. To assess the persistency of the substances, the plants were kept for 7 days in a greenhouse after the spray coating had dried on. Only then were the leaves inoculated with an aqueous zoospore suspension of Plasmopara viticola. The grapevines were then initially kept in a water vapor-saturated chamber at 24° C. for 48 hours and then in a greenhouse at 20-30° C. for 5 days. After this period of time, the plants were once more kept in a humid chamber for 16 hours to promote sporangiophore eruption. The extent of the infection on the undersides of the leaves was then assessed visually.

[1] = system: Erysiphe graminis forma specialis tritici; test: Protective activity against Erysiphe graminis var. tritici (powdery mildew of wheat); settings: 16 ppm, sprayed 24 h before inoculation, seedlings cv. Frühgold, assessed after 7 days; untreated control 80%
Experimental: 1) Protective Activity Against Erysiphe graminis var. tritici (Powdery Mildew of Wheat) Leaves of potted […] seedlings cv. “Frühgold” were sprayed to runoff point with an aqueous active compound preparation which had been prepared from a stock solution comprising 10% of active compound, 63% of cyclohexanone and 27% of emulsifier, and, 24 hours after the spray coating had dried on, dusted with spores of powdery mildew of wheat (Erysiphe graminis forma specialis tritici). The test plants were subsequently placed in a greenhouse at from 20 to 22° C. and a relative atmospheric humidity of 75 to 80%. After 7 days, the extent of mildew development was determined visually as % infection of the total leaf area.

pyricularia oryzae = settings: 16 ppm, rice seedlings cv. Tai-Nong 67, inoculated the next day, assessed after 6 days; untreated control 85%

CO/C=C(/C(=O)OC)c1cccnc1Oc1ccn(-c2ccc(Cl)cc2)n1 [I.3, Methyl methoxy-[2-(1-(4-chlorophenyl)-3-pyrazolyloxy)pyridin-3-yl]acrylate]
infection on the undersides of the leaves (Plasmopara viticola): no infestation
infection (mildew development as % infection of the total leaf area) [1]: 5%
infestation on the leaves (pyricularia oryzae): 15%
